# Assay results taken from ChEMBL document CHEMBL6127052, “Discovery of membrane-targeting amphiphilic honokiol derivatives containing an oxazolethione moiety to combat methicillin-resistant Staphylococcus aureus (MRSA) infections” (Eur J Med Chem, 2024).
# Activity calls are given as the source filed them. The calls are words filed in the database; no cut-off is given here.
# How the values were obtained:
# [1] = system: Staphylococcus aureus; assay: Antibacterial activity against methicillin-resistant Staphylococcus aureus clinical isolate M12 infected in sepsis BALB/c mouse model assessed as decrease in bacterial load in spleen at 12 mg/kg, ip administered consecutively at 12 hr-interval for 24 hrs measured after 24 hrs post-last dose; assay type: functional; details: time 48 hrs
# [2] = system: Staphylococcus aureus; assay: Antibacterial activity against methicillin-resistant Staphylococcus aureus clinical isolate M12 infected in KM mouse assessed as decrease in erythematous pustules in intradermal tissues at 5 mg/kg, sc measured after 24 hrs; assay type: functional, organism-based
# [3] = system: Staphylococcus aureus; assay: Antibacterial activity against methicillin-resistant Staphylococcus aureus clinical isolate M12 infected in KM mouse assessed as reduction in IL-6 level at infection site at 5 mg/kg, sc measured after 24 hrs by ELISA; assay type: functional
# [4] = Toxicity in KM mouse infected with methicillin-resistant Staphylococcus aureus clinical isolate M12 assessed as damage in liver at 5 mg/kg, sc measured after 24 hrs by H and E staining based analysis; assay type: organism-based; details: in vivo
# [5] = system: Staphylococcus aureus; assay: (§1) Antibacterial activity against methicillin-resistant Staphylococcus aureus clinical isolate M12 infected in sepsis BALB/c mouse model assessed as decrease in pathological change in white medulla of spleen at 12 mg/kg, ip administered consecutively at 12 hr-interval for 24 hrs measured after 24 hrs post-last dose by H and E staining based analysis; assay type: functional, organism-based; details: time 48.0 hrs
# [6] = system: Staphylococcus aureus; assay: as §1, with “degeneration” for “pathological change in white medulla”, “hepatocytes” for “spleen”; assay type: functional, organism-based; details: time 48.0 hrs
# [7] = Toxicity in sepsis BALB/c mouse model infected with methicillin-resistant Staphylococcus aureus clinical isolate M12 assessed as survival rate at 12 mg/kg, ip administered consecutively at 12 hr-interval for 7 days measured after 24 hrs post-last dose; assay type: organism-based; details: in vivo, 192 h, time 8 day
# [8] = system: Staphylococcus aureus; assay: Antibacterial activity against methicillin-resistant Staphylococcus aureus clinical isolate M12 infected in sepsis BALB/c mouse model assessed as decrease in bacterial load in liver at 12 mg/kg, ip administered consecutively at 12 hr-interval for 24 hrs measured after 24 hrs post-last dose; assay type: functional; details: time 48 hrs
# [9] = Toxicity in KM mouse infected with methicillin-resistant Staphylococcus aureus clinical isolate M12 assessed as damage in lung at 5 mg/kg, sc measured after 24 hrs by H and E staining based analysis; assay type: organism-based; details: in vivo
# [10] = system: Staphylococcus aureus; assay: as §1, with “necrosis” for “pathological change”, “renal tubular epithelial cells” for “white medulla of spleen”; assay type: functional, organism-based; details: time 48.0 hrs
# [11] = system: Staphylococcus aureus; assay: as §1, with “red” for “white”; assay type: functional, organism-based; details: time 48.0 hrs
# [12] = system: Staphylococcus aureus; assay: Antibacterial activity against methicillin-resistant Staphylococcus aureus clinical isolate M12 infected in KM mouse assessed as reduction in TNF-alpha level at infection site at 5 mg/kg, sc measured after 24 hrs by ELISA; assay type: functional
# [13] = system: Staphylococcus aureus; assay: as §1, with “necrosis” for “pathological change”, “hepatocytes” for “white medulla of spleen”; assay type: functional, organism-based; details: time 48.0 hrs
# [14] = system: Staphylococcus aureus; assay: Antibacterial activity against methicillin-resistant Staphylococcus aureus clinical isolate M12 infected in KM mouse assessed as decrease in bacterial survival rate at 5 mg/kg, sc measured after 24 hrs by drop-plate counting method relative to control; assay type: functional
# [15] = system: Staphylococcus aureus; assay: Antibacterial activity against methicillin-resistant Staphylococcus aureus clinical isolate M12 infected in KM mouse assessed as decrease in erythematous pustules at infected skin on back of animal at 5 mg/kg, sc measured after 24 hrs; assay type: functional, organism-based
# [16] = Toxicity in KM mouse infected with methicillin-resistant Staphylococcus aureus clinical isolate M12 assessed as histopathological abnormality in liver at 5 mg/kg, sc measured after 24 hrs by H and E staining based analysis; assay type: organism-based; details: in vivo
# [17] = system: Staphylococcus aureus; assay: Antibacterial activity against methicillin-resistant Staphylococcus aureus clinical isolate M12 infected in sepsis BALB/c mouse model assessed as decrease in bacterial load in kidney at 12 mg/kg, ip administered consecutively at 12 hr-interval for 24 hrs measured after 24 hrs post-last dose; assay type: functional; details: time 48 hrs
# [18] = Toxicity in KM mouse infected with methicillin-resistant Staphylococcus aureus clinical isolate M12 assessed as damage in kidney at 5 mg/kg, sc measured after 24 hrs by H and E staining based analysis; assay type: organism-based; details: in vivo
# [19] = Toxicity in KM mouse infected with methicillin-resistant Staphylococcus aureus clinical isolate M12 assessed as histopathological abnormality in lung at 5 mg/kg, sc measured after 24 hrs by H and E staining based analysis; assay type: organism-based; details: in vivo
# [20] = Toxicity in KM mouse infected with methicillin-resistant Staphylococcus aureus clinical isolate M12 assessed as histopathological abnormality in heart at 5 mg/kg, sc measured after 24 hrs by H and E staining based analysis; assay type: organism-based; details: in vivo
# [21] = system: Staphylococcus aureus; assay: as §1, with “degeneration” for “pathological change in white medulla”, “renal tubular epithelial cells” for “spleen”; assay type: functional, organism-based; details: time 48.0 hrs
# [22] = Toxicity in KM mouse infected with methicillin-resistant Staphylococcus aureus clinical isolate M12 assessed as damage in spleen at 5 mg/kg, sc measured after 24 hrs by H and E staining based analysis; assay type: organism-based; details: in vivo
# [23] = Toxicity in KM mouse infected with methicillin-resistant Staphylococcus aureus clinical isolate M12 assessed as histopathological abnormality in spleen at 5 mg/kg, sc measured after 24 hrs by H and E staining based analysis; assay type: organism-based; details: in vivo
# [24] = Toxicity in KM mouse infected with methicillin-resistant Staphylococcus aureus clinical isolate M12 assessed as histopathological abnormality in kidney at 5 mg/kg, sc measured after 24 hrs by H and E staining based analysis; assay type: organism-based; details: in vivo
# [25] = system: Staphylococcus aureus; assay: Antibacterial activity against methicillin-resistant Staphylococcus aureus clinical isolate M12 infected in KM mouse assessed as decrease in bacterial load in skin tissues at 5 mg/kg, sc measured after 24 hrs by drop-plate counting method (reference value: 6.7); assay type: functional
# [26] = Toxicity in KM mouse infected with methicillin-resistant Staphylococcus aureus clinical isolate M12 assessed as damage in heart at 5 mg/kg, sc measured after 24 hrs by H and E staining based analysis; assay type: organism-based; details: in vivo
compound,measurement,setting,value
CN[C@H](CC(C)C)C(=O)N[C@H]1C(=O)N[C@@H](CC(N)=O)C(=O)N[C@H]2C(=O)N[C@H]3C(=O)N[C@H](C(=O)N[C@H](C(=O)O)c4cc(O)cc(O)c4-c4cc3ccc4O)[C@H](O)c3ccc(c(Cl)c3)Oc3cc2cc(c3O[C@@H]2O[C@H](CO)[C@@H](O)[C@H](O)[C@H]2O[C@H]2C[C@](C)(N)[C@H](O)[C@H](C)O2)Oc2ccc(cc2Cl)[C@H]1O [VANCOMYCIN],Activity,[1],1.57 log10CFU/g
same,Activity,[2],inactive
same,Activity,[3],56.5 pg/mL
same,Activity,[4],Non-Toxic
same,Activity,[5],Active
same,Activity,[6],Active
same,Survival,[7],50%
same,Activity,[8],1.62 log10CFU/g
same,Activity,[9],Non-Toxic
same,Activity,[10],Active
same,Activity,[11],Active
same,Activity,[12],96.3 pg/mL
same,Activity,[13],Active
same,Activity,[14],93.33%
same,Activity,[15],inactive
same,Activity,[16],Non-Toxic
same,Activity,[17],1.48 log10CFU/g
same,Activity,[18],Non-Toxic
same,Activity,[19],Non-Toxic
same,Activity,[20],Non-Toxic
same,Activity,[21],Active
same,Activity,[22],Non-Toxic
same,Activity,[23],Non-Toxic
same,Activity,[24],Non-Toxic
same,Activity,[25],1.4 log10CFU/g
same,Activity,[26],Non-Toxic
